Experimental data published in ChEMBL document CHEMBL1124131, “Derivatives of 2-methylenepropane-1,3-diol as new antagonists of platelet activating factor” (J Med Chem, 1988).

Tests used:
[1] = system: Cavia porcellus; experiment: Tested in vivo for dose required to inhibit PAF-induced bronchoconstriction in guinea pig; type: functional
[2] = species on record: Oryctolagus cuniculus; experiment: Concentration required to reduce 50% of maximum platelet aggregation caused by PAF in platelet rich plasma from rabbit in vitro; type: functional
[3] = system: Rattus norvegicus; experiment: Tested in vivo for dose required to inhibit PAF-induced hypotension in rat
[4] = system: Rattus norvegicus; experiment: as above; remark: listed apart in the source

EC50 [2] [nM] | SMILES | ED50 [1] [mg/kg] | ED50 [3] [mg/kg] | ED50 [4] [mg/kg]
500 | C=C(COC(=O)CCCCC[n+]1ccccc1)COC(=O)NCCCCCCCCCCCCCCCCCC.[Br-] | 0.2 | 0.5 | –
250 | C=C(COC(=O)CCCCCC[n+]1ccsc1)COC(=O)NCCCCCCCCCCCCCCCCCC.[Br-] | 0.1 | – | 0.5
